Test [1] has as its system Aβ 40 in conditioned medium of cells stably expressing Amyloid Precursor Protein (APP). Put plainly: In vitro BACE cell-based assay (Aβ 40 sandwich ELISA). The note with it: Homo sapiens, HEK293. In a few lines:
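APP-expressing cells, 24 h pre-culture in DMEM/10% FBS, treated 24 h with 10-point compound dilutions from 100 or 10 μM top, 0.1% DMSO final. Secreted Aβ40 quantified by sandwich ELISA (pAb40 capture, biotinylated 6E10 detection, europium TRF); IC50 from percent inhibition versus concentration.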
A general note: In an ELISA, binding on a coated surface is turned into a signal by an enzyme label.

In test [2] the target is Beta Secretase enzyme (BACE) (Homo sapiens, UniProt P56817). Put plainly: In vitro enzymatic BACE FRET assay. The format is biochemical. The note with it: read-out: BACE1 FRET assay IC50. In a few lines: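 Enzyme (0.2 nM) pre-incubated 1 h with serially diluted inhibitors in 0.05 M acetate pH 4.2, 10% DMSO, 100 uM genapol. Reaction started with 50 nM fluorophore/quencher peptide FRET substrate, run 1 h, stopped with Tris to neutral pH. Fluorescence read at excitation 488 nm, […].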
Beta Secretase enzyme (BACE), sequence (P56817 46-501): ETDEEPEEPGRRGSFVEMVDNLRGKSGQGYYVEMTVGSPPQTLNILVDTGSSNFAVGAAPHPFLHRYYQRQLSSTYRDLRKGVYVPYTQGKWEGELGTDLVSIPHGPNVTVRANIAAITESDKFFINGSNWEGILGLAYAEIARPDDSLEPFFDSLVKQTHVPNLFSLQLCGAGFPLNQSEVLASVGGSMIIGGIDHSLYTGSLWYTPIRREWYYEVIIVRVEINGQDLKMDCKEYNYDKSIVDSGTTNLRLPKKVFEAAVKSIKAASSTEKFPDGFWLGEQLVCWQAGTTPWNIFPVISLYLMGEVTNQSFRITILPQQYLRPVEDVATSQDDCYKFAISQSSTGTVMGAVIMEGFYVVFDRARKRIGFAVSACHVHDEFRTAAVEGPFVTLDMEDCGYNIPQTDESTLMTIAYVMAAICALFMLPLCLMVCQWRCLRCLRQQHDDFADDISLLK

The target in another test is Cathepsin D (Cat D) (Homo sapiens, UniProt P07339). Put plainly: In vitro enzymatic Cathepsin D (Cat D) FRET assay. It is filed as biochemical. In a few lines: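 Recombinant CHO-expressed enzyme (9 nM) pre-incubated 1 h with serially diluted inhibitor in 0.05 M citrate pH 3.5, 10% DMSO final, 5 mM CHAPS. Reaction started with 20 nM FRET peptide substrate, run 1 h, stopped with Tris to neutral pH; fluorescence read at ex 500/em 580 nm.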
Cathepsin D (Cat D), sequence (P07339 65-412, species assumed): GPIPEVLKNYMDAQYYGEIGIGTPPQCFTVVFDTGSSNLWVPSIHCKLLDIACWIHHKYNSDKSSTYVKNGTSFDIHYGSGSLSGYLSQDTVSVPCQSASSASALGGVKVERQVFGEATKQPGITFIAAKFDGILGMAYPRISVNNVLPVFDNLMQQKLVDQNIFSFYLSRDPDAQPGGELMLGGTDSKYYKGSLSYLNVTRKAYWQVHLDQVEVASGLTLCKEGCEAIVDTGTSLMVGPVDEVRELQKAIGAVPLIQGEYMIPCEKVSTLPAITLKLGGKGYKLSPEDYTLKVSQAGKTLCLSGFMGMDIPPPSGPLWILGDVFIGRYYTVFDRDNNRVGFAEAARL

Where [3] appears, read: text summary referring to data in Table 2.
The mark [4] stands for this setting: average IC50, HEK cell assay, Aβ 40 readout.
[5] abbreviates: average IC50, in vitro enzymatic BACE FRET assay.
[6] abbreviates: Cathepsin D FRET assay, read-out: CatD IC50.

As a reminder, the IC50 is the concentration needed to halve the response being measured.

Read-outs that look alike come from different tables or passages of the source.

Turning to `Cc1cc(C#N)cnc1C(=O)Nc1ccc2c(c1)[C@@]1(C)N=C(N)C(C)(C)S(=O)(=O)[C@@H]1C[C@H](C)O2` [Example 57, N-((4aR,6S,11bR)-2-amino-3,3,6,11b-tetramethyl-4,4-dioxido-4a,5,6,11b-tetrahydro-3H-[1]benzoxepino[4,5-b][1,4]thiazin-10-yl)-5-cyano-3-methyl-2-pyridinecarboxamide], the IC50 is 0.0007 µM in test [1] (HEK cell, average IC50); 0.002 µM in test [2] (average IC50); 1460 µM on Cathepsin D (Cat D) (read-out: CatD IC50); above 1200 µM at Cathepsin D (Cat D) (setting [3]).
Regarding `CC1(C)C(N)=N[C@]2(CF)c3cc(NC(=O)c4cnc(C(F)(F)F)cn4)ccc3OCC[C@@H]2S1(=O)=O` [Example 120, N-((4aS,11bS)-2-amino-11b-(fluoromethyl)-3,3-dimethyl-4,4-dioxido-4a,5,6,11b-tetrahydro-3H-[1]benzoxepino[4,5-b][1,4]thiazin-10-yl)-5-(trifluoromethyl)-2-pyrazinecarboxamide], the IC50 came out at 0.148 µM in test [1] (setting [4]), 0.082 µM in test [2] (setting [5]) and 752 µM at Cathepsin D (Cat D) (setting [6]).
As to `CC1(C)C(N)=N[C@]2(C)c3cc(NC(=O)c4ccc(OCC(F)(F)F)cn4)ccc3OCC[C@H]2S1(=O)=O` [Example 97, N-((4aR,11bR)-2-amino-3,3,11b-trimethyl-4,4-dioxido-4a,5,6,11b-tetrahydro-3H-[1]benzoxepino[4,5-b][1,4]thiazin-10-yl)-5-(2,2,2-trifluoroethoxy)-2-pyridinecarboxamide], the values for the IC50 (in test [1] (setting [4]); in test [2] (setting [5]); on Cathepsin D (Cat D) (setting [6])) were 0.069 µM, 0.022 µM and 974 µM, respectively.
The like results for `C[C@H]1C[C@@H]2[C@](C)(N=C(N)C(C)(C)S2(=O)=O)c2cc(Nc3nccc4cc(C(F)(F)F)cnc34)ccc2O1` [Example 131, (4aR,6S,11bR)-2-amino-3,3,6,11b-tetramethyl-10-((3-(trifluoromethyl)-1,7-naphthyridin-8-yl)amino)-4a,5,6,11b-tetrahydro-3H-benzo[6,7]oxepino[4,5-b][1,4]thiazine 4,4-dioxide] were, in that order, 0.005 µM, 0.005 µM and 443 µM.
As to `Cc1cc(C#N)cnc1C(=O)Nc1ccc2c(c1)[C@@]1(C)N=C(N)C(C)(C)S(=O)(=O)[C@@H]1CCC2` [Example 12, N-((4aR,11bR)-2-amino-3,3,11b-trimethyl-4,4-dioxido-3,4a,5,6,7,11b-hexahydrobenzo[3,4]cyclohepta[1,2-b][1,4]thiazin-10-yl)-5-cyano-3-methyl-2-pyridinecarboxamide], the IC50 is 0.001 µM in test [1] (HEK cell, average IC50); 0.003 µM in test [2] (average IC50); 1040 µM on Cathepsin D (Cat D) (read-out: CatD IC50); above 1200 µM at Cathepsin D (Cat D) (setting [3]).
Consider `CC1(C)C(N)=N[C@]2(C)c3cc(NC(=O)c4ccc(OCC#N)cn4)ccc3OCC[C@H]2S1(=O)=O` [Example 126, N-((4aR,11bR)-2-amino-3,3,11b-trimethyl-4,4-dioxido-4a,5,6,11b-tetrahydro-3H-[1]benzoxepino[4,5-b][1,4]thiazin-10-yl)-5-(cyanomethoxy)-2-pyridinecarboxamide], for which the figures for the IC50 (in test [1] (setting [4]); in test [2] (setting [5]); on Cathepsin D (Cat D) (setting [6])) were 0.034 µM, 0.017 µM and above 1.65 µM, respectively.
For the compound `CC1(C)C(N)=N[C@]2(C)c3cc(NC(=O)c4ccc(C(F)(F)F)cn4)ccc3OCC[C@H]2S1(=O)=O` [Example 165, N-((4aR,11bR)-2-amino-3,3,11b-trimethyl-4,4-dioxido-4a,5,6,11b-tetrahydro-3H-[1]benzoxepino[4,5-b][1,4]thiazin-10-yl)-5-(trifluoromethyl)-2-pyridinecarboxamide], the IC50 in test [1] (HEK cells, average IC50) was found to be 0.004 µM; in test [2] (average IC50), 0.006 µM; on Cathepsin D (Cat D) (read-out: CatD IC50) it was 1070 µM.
In the case of `Cc1cc(C#N)cnc1C(=O)Nc1ccc2c(c1)[C@@]1(CF)N=C(N)C(C)(C)S(=O)(=O)[C@H]1CCO2` [Example 153, N-((4aS,11bS)-2-amino-11b-(fluoromethyl)-3,3-dimethyl-4,4-dioxido-4a,5,6,11b-tetrahydro-3H-[1]benzoxepino[4,5-b][1,4]thiazin-10-yl)-5-cyano-3-methyl-2-pyridinecarboxamide], the results for the IC50 (in test [1] (setting [4]); in test [2] (setting [5]); on Cathepsin D (Cat D) (setting [6])) were 0.006 µM, 0.002 µM and 2070 µM, respectively.
As to `C[C@H]1C[C@@H]2[C@](C)(N=C(N)C(C)(C)S2(=O)=O)c2cc(NC(=O)c3ncc(Cl)cc3CO)ccc2O1` [Example 130, N-((4aR,6S,11bR)-2-amino-3,3,6,11b-tetramethyl-4,4-dioxido-4a,5,6,11b-tetrahydro-3H-benzo[6,7]oxepino[4,5-b][1,4]thiazin-10-yl)-5-chloro-3-(hydroxymethyl)picolinamide], the concentration for half-maximal inhibition (IC50) in test [1] (setting [4]) was found to be 0.0008 µM; in test [2] (setting [5]), 0.003 µM; at Cathepsin D (Cat D) (setting [6]), 44.8 µM.
As to `Cc1cc(OC(F)F)cnc1C(=O)Nc1ccc2c(c1)[C@@]1(C)N=C(N)C(C)(C)S(=O)(=O)[C@@H]1CCS2` [Example 118], the IC50 in test [1] (setting [4]) turned out to be 0.002 µM; in test [2] (setting [5]) it was 0.002 µM; on Cathepsin D (Cat D) (setting [6]), 207 µM.
In the case of `COc1cnc(C(=O)Nc2ccc3c(c2)[C@@]2(C)N=C(N)C(C)(C)S(=O)(=O)[C@H]2CCO3)c(C)c1` [Example 161, N-((4aS,11bR)-2-amino-3,3,11b-trimethyl-4,4-dioxido-4a,5,6,11b-tetrahydro-3H-[1]benzoxepino[4,5-b][1,4]thiazin-10-yl)-5-methoxy-3-methyl-2-pyridinecarboxamide], the IC50 in test [1] (HEK cells, average IC50) turned out to be 0.008 µM; in test [2] (average IC50) it was 0.032 µM; on Cathepsin D (Cat D) (read-out: CatD IC50), 878 µM.
For `CC1(C)C(N)=N[C@]2(C)c3cc(NC(=O)c4ccc(OC(F)F)cn4)ccc3OCC[C@H]2S1(=O)=O` [Example 194, N-((4aR,11bR)-2-amino-3,3,11b-trimethyl-4,4-dioxido-4a,5,6,11b-tetrahydro-3H-[1]benzoxepino[4,5-b][1,4]thiazin-10-yl)-5-(difluoromethoxy)-2-pyridinecarboxamide], in that order: 0.003 µM, 0.008 µM and 652 µM.
As for `CC#C[C@H](C)Oc1ccc(C(=O)Nc2ccc3c(c2)[C@@]2(C)N=C(N)C(C)(C)S(=O)(=O)[C@@H]2CCO3)nc1` (single isomer, unassigned) [Example 69], the half-maximal inhibitory concentration (IC50) in test [1] (HEK cell, average IC50) came to 1.01 µM; in test [2] (average IC50), 0.081 µM; at Cathepsin D (Cat D) (read-out: CatD IC50) it was 811 µM.
Take `Cc1cc(Cl)cnc1C(=O)Nc1ccc2c(c1)[C@@]1(C)N=C(N)C(C)(C)S(=O)(=O)[C@H]1C[C@@H](C)O2` [Example 181, N-((4aS,6R,11bR)-2-amino-3,3,6,11b-tetramethyl-4,4-dioxido-4a,5,6,11b-tetrahydro-3H-[1]benzoxepino[4,5-b][1,4]thiazin-10-yl)-5-chloro-3-methyl-2-pyridinecarboxamide]: the concentration for half-maximal inhibition (IC50) in test [1] (HEK cells, average IC50) is 0.0008 µM; in test [2] (average IC50) it was 0.001 µM; at Cathepsin D (Cat D) (read-out: CatD IC50) it was 124 µM.
As for `COc1ccc(C(=O)Nc2ccc3c(c2)[C@@]2(C)N=C(N)C(C)(C)S(=O)(=O)[C@@H]2C[C@H](C)O3)nc1` [Example 72, N-((4aR,6S,11bR)-2-amino-3,3,6,11b-tetramethyl-4,4-dioxido-4a,5,6,11b-tetrahydro-3H-[1]benzoxepino[4,5-b][1,4]thiazin-10-yl)-5-methoxy-2-pyridinecarboxamide], the IC50 in test [1] (HEK cell, average IC50) is 0.005 µM; in test [2] (average IC50), 0.011 µM; on Cathepsin D (Cat D) (read-out: CatD IC50), 1390 µM; at Cathepsin D (Cat D) (setting [3]), above 1200 µM.
For `C#CCOc1ccc(C(=O)Nc2ccc3c(c2)[C@@]2(C)N=C(N)C(C)(C)S(=O)(=O)[C@@H]2C[C@H](C)O3)nc1` [Example 145, N-((4aR,6S,11bR)-2-amino-3,3,6,11b-tetramethyl-4,4-dioxido-4a,5,6,11b-tetrahydro-3H-[1]benzoxepino[4,5-b][1,4]thiazin-10-yl)-5-(2-propyn-1-yloxy)-2-pyridinecarboxamide], the values for the IC50 (in test [1] (setting [4]); in test [2] (setting [5]); at Cathepsin D (Cat D) (setting [6])) were 0.002 µM, 0.001 µM and 329 µM, respectively.
`CC1(C)C(N)=N[C@]2(CF)c3cc(NC(=O)c4cnc(C(F)(F)F)cn4)ccc3OCC[C@H]2S1(=O)=O` [Example 121, N-((4aR,11bS)-2-amino-11b-(fluoromethyl)-3,3-dimethyl-4,4-dioxido-4a,5,6,11b-tetrahydro-3H-[1]benzoxepino[4,5-b][1,4]thiazin-10-yl)-5-(trifluoromethyl)-2-pyrazinecarboxamide]: the IC50 stood at 0.21 µM in test [1] (setting [4]), 0.184 µM in test [2] (setting [5]) and 995 µM at Cathepsin D (Cat D) (setting [6]).
On to `Cc1cc(Cl)cnc1C(=O)Nc1ccc2c(c1)[C@@]1(CF)N=C(N)C(C)(C)S(=O)(=O)[C@H]1CCO2` [Example 147, N-((4aS,11bS)-2-amino-11b-(fluoromethyl)-3,3-dimethyl-4,4-dioxido-4a,5,6,11b-tetrahydro-3H-[1]benzoxepino[4,5-b][1,4]thiazin-10-yl)-5-chloro-3-methyl-2-pyridinecarboxamide], for which the concentration for half-maximal inhibition (IC50) in test [1] (setting [4]) is 0.009 µM; in test [2] (setting [5]), 0.003 µM; on Cathepsin D (Cat D) (setting [6]), 1280 µM.
Consider `CC1(C)C(N)=N[C@]2(C)c3cc(NC(=O)c4ccc(Cl)cn4)ccc3CCC[C@@H]2S1(=O)=O` [Example 38, N-((4aS,11bR)-2-amino-3,3,11b-trimethyl-4,4-dioxido-3,4a,5,6,7,11b-hexahydrobenzo[3,4]cyclohepta[1,2-b][1,4]thiazin-10-yl)-5-chloro-2-pyridinecarboxamide], for which the IC50 in test [1] (HEK cell, average IC50) is 0.15 µM; in test [2] (average IC50), 0.099 µM; at Cathepsin D (Cat D) (read-out: CatD IC50), above 400 µM.

The record behind these values is patent publication US9309263B2, “Fused multi-cyclic sulfone compounds as inhibitors of beta-secretase and methods of use thereof” (AMGEN INC., priority 2013, dated 2016).
